Where “and” joins values, the source holds several entries; their conditions need not be identical. Equal values may be shown once.
Experiments:
[1] = tested on: SW1116 cells; test: MTT cytotoxicity assay, SW1116; settings: for IC50: Homo sapiens, SW 1116, 24 h, read-out: IC50 value
Description: (§1) Six colorectal cancer cell lines, RKO, HT29, DLD-1, HCT116, Caco2 and SW1116 (CRL-2577, HTB-38, CCL-221, CCL-247, HTB-37, CCL-233; ATCC, Manassas, VA, USA, respectively, for CRC lines), and one normal cell line, CCD-841CoN (CRL-1790, ATCC, USA), were routinely cultured at 37 °C in a 5% CO2 incubator (Direct Heat CO2; Thermo Scientific, Waltham, MA, USA) in cell line-appropriate culture medium according to the manufacturer’s recommendations. Eagle’s minimum essential medium (EMEM) was used to culture RKO, Caco2 and CCD-841CoN lines, while McCoy’s 5A medium was used for HT29 and HCT116 lines. DLD-1 cells were grown in RPMI-1640 medium, whereas SW1116 cells were maintained in Leibovitz’s L-15 medium. All culture media were supplemented with 10% fetal bovine serum (EuroClone, Milan, Italy), and gentamycin at the concentration […] (BioWhittaker, Lonza, Basel, Switzerland) was also applied to prevent culture contamination.
(§2) For this purpose, cells were exposed to the test compound for 24 h at concentrations of 0.1, 1, 10, 20, 50 and 100 μg/mL. Control cells were not treated with the compounds. MTT (0.25 mg/mL) was then added to the cultures and incubated for 3 h at 37 °C. After a time, the cells were washed with phosphate buffered saline (PBS), and next, formazan dye was dissolved in 100 μL of dimethyl sulfoxide (Sigma-Aldrich, St Louis, MO, USA). Absorbance was measured at 540 nm using a Wallac 1420 VICTOR microplate reader (PerkinElmer, Waltham, MA, USA).

[2] = tested on: Caco2 cells; test: MTT cytotoxicity assay, Caco2; assay type: cell-based; settings: Homo sapiens, Caco-2, 24 h, read-out: IC50 value
[3] = tested on: RKO cells; test: MTT cytotoxicity assay, RKO; settings: Homo sapiens, 24 h, read-out: IC50 value
Description: as §1, §2

[4] = tested on: HCT116 cells; test: MTT cytotoxicity assay, HCT116; assay type: cell-based; settings: Homo sapiens, HCT-116, 24 h, read-out: IC50 value
Text: (§3) Control cells were not treated with the compounds.

[5] = tested on: CCD-841CoN cells; test: cells; assay type: cell-based; settings: Homo sapiens, CCD-841CoN, 24 h, read-out: IC50 value
Text: as §3

[6] = tested on: HT29 cells; test: MTT cytotoxicity assay, HT29; assay type: cell-based; settings: Homo sapiens, HT-29, 24 h, read-out: IC50 value
Text: as §3

[7] = tested on: DLD-1 cells; test: MTT cytotoxicity assay, DLD-1; assay type: cell-based; settings: Homo sapiens, DLD-1, 24 h, read-out: IC50 value
Text: as §3

[8] = tested on: colorectal cancer cell lines RKO, HT29, DLD-1, HCT116, Caco2 and SW1116; test: MTT cytotoxicity assay, statements over all tested cell lines
Description: as §1, §2

| Compound | IC50 [1] | sensitivity of cells to the compound ([1]; SW1116, 10 µg/mL, in comparison with other CRC lines and normal colonocytes) | IC50 [2] | IC50 [3] | IC50 [4] | IC50 [5] | IC50 [6] | IC50 [7] | cytotoxic effect compared with the other tested compounds ([8]; MTT, 24 h) | selectivity towards cancer cells ([8]; cancer lines vs normal cells) | change in cell viability ([8]; each of the tested cell lines, concentrations higher than 1 µg/mL) |
| --- | --- | --- | --- | --- | --- | --- | --- | --- | --- | --- | --- |
| C=C(C)[C@@H]1CC[C@]2(COC(=O)c3cn(CP(=O)(OCC)OCC)nn3)CC[C@]3(C)C(CCC4[C@@]5(C)CC[C@H](O)C(C)(C)C5CC[C@]43C)C12 (some centres unmarked) [TR50] | 33.1 µg/mL and 48.1 µM | lack of sensitivity | 13 µg/mL and 18.9 µM | 4.33 µg/mL and 6.29 µM | 6.71 µg/mL and 9.76 µM | 18.3 µg/mL and 26.6 µM | 10.3 µg/mL and 14.9 µM | 7.87 µg/mL and 11.4 µM |  |  |  |
| C#CC(=O)OC[C@]12CC[C@@H](/C(C)=C/P(=O)(OCC)OCC)C1C1CCC3[C@@]4(C)CC[C@H](O)C(C)(C)C4CC[C@@]3(C)[C@]1(C)CC2 (some centres unmarked) [ECH147, 29-diethoxyphosphoryl-28-propynylobetulin] | 5.21 µg/mL and 8.99 µM |  | 1.4 µg/mL and 2.43 µM | 1.18 µg/mL and 2.04 µM | 3.24 µg/mL and 5.59 µM |  | 0.63 µg/mL and 1.09 µM | 0.69 µg/mL and 1.19 µM | strongest cytotoxic effect | does not show selectivity towards cancer cells | significant decrease in cell viability |
